Test results published in patent US12071424B2, “IRE1 small molecule inhibitors” (Cornell University, priority 2017, dated 2024).

Columns and labels:
IRE1a [1] = molecular target: T1, IRE1a (Homo sapiens, UniProt O75460); test: In vitro FRET assay (IRE1a cleavage of XBP1 RNA probe); assay type: biochemical; details: 2 nM SignalChem IRE1a, tested as Formic Acid Salt (37: HCl Salt)
T1 construct: purchased SignalChem
Procedure: In vitro FRET assay was performed to evaluate the ability of select compounds to inhibit IRE1, the results of which are summarized in Table 3. To perform the in vitro FRET assay, 1× complete assay buffer (CAB: […], 50 mM sodium citrate pH 7.15, 1 mM magnesium acetate, 0.02% tween 20) was used to SignalChem IRE1a protein to a final concentration of 2 nM. Selected compounds were serially diluted with DMSO in a non-binding black 384-well plate for a total of 15 ul in each well. 2 ul of the serially diluted compound or DMSO control were then added to new wells containing 98 ul of 1× CAB, for a total volume of 100 ul, 10 ul of which were then transferred to wells of a new plate. 5 ul of the diluted IRE1a was then added to each well. 5 ul of a […] XBP1 RNA probe was then added to each well. Fluorescence was then read over 30 minutes in kinetic mode (485/515 nm).
Two RNA probes were used, XBP1 wildtype (SEQ ID NO: 2) which is able to be spliced by active IRE1a or XBP1 mutant (SEQ ID NO: 3) which is unable to be spliced. Each probe contained a 5′ 6-FAM modification and a 3′ IOWA black FQ modification. […]

IRE1a [2] = test: IRE1a Endoribonuclease Nanoluciferase Assay (XBP1 luciferase reporter in 293T cells); assay type: cell-based, human; details: ER stressor, tested as Formic Acid Salt (37: HCl Salt)
Procedure: Compounds disclosed herein assessed for disruption of IRE1 signaling using a IRE1a Endoribonuclease Nanoluciferase Assay. Briefly, 25×10^5 293T cells were seeded in a 10 cm^2 tissue culture plate. About 24 hours later, the cells were transfected with Effectene. In a 15 mL tube, the following was added: 2 ug XBP1 luciferase reporter plasmid (PGK-Luc2-P2A-XBP1u-Nanoluciferase-Pest); 300 ul EC buffer; and 16 ul Enhancer, followed by incubation at room temp for 5 minutes. Next, 60 ul Effectene (Qiagen 301427) was added, followed by incubation at room temperature for 10 minutes. 2.6 mL cDMEM media was added. Old media was aspirated from the cells, followed by addition of 7 mL fresh media. Full transfection mixture was added dropwise to cells. Cells were incubated for 6 hours, followed by trypsinization, centrifugation and resuspension in 11 mL fresh cDMEM media. 100 uL of cells were plated per a well in a 96 well plate. A day later, ER stressors of choice +/−inhibitors were added. To harvest, media was aspirated from cells completely, then 50 uL 1× passive lysis buffer (Promega: E1941) was added per well and put on shaker (300 rpm) for 30 minutes at room temperature. Cells were centrifuged, and 15 uL sample per well was added to a new, opaque white 384 well plate (Corning 3570). 15 uL OneGlo (nanoluciferase kit, Promega N1630) was added. Plates were spun down, placed on shaker (300 rpm) for 10 minutes. Plates were read on luminometer, 1000 ms integration time per well. 15 uL Stop an Glo (nanoluciferase kit) was added. Plates were spun down, placed on shaker (300 rpm) for 10 minutes. Plates were read on luminometer, 1000 ms second integration time per well. Recordings are provided below in Table 4.

T1 sequence (O75460 19-977): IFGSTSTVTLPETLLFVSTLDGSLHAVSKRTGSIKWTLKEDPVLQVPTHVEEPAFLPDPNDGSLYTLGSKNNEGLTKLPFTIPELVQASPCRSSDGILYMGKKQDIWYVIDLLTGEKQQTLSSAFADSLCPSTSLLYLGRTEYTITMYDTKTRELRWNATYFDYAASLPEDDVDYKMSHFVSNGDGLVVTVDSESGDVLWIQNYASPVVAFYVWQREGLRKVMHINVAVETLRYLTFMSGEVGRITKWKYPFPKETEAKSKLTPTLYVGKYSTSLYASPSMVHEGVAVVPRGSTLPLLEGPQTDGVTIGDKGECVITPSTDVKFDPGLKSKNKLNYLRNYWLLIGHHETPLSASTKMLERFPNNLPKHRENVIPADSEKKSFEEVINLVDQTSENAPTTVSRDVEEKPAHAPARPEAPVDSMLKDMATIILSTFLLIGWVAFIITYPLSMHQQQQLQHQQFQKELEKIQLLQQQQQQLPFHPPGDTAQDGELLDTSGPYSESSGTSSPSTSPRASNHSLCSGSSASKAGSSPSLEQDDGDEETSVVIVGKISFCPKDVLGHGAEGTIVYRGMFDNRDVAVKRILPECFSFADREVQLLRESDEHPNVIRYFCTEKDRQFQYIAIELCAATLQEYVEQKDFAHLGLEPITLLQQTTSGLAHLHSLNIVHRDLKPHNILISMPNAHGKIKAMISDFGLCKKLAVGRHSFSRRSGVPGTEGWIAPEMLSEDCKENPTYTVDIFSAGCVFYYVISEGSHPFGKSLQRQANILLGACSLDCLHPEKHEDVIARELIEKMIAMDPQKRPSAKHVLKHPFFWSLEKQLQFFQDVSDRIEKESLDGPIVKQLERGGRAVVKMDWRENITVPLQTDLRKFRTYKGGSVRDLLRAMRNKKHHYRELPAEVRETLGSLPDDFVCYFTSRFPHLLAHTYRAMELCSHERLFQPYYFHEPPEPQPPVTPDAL

Compound	IC50 (IRE1a [1]) [nM]	EC50 (IRE1a [2]; Homo sapiens, HEK-293T) [nM]	EC50 (IRE1a [2]) [nM]
CCc1cc(-c2ccc(NS(=O)(=O)c3ccccc3Cl)c(F)c2)cc2cnc(N[C@H]3CC4C[C@H](N)CC4C3)nc12 (stereo partly shown) [Compound 83]	5 to 50		50 to 100
CCc1cc(-c2ccc(NS(=O)(=O)c3ccccc3Cl)c(F)c2)cc2cnc(N[C@H]3CC[C@H](N4CCCC4)CC3)nc12 [Compound 88, 2-chloro-N-(4-(8-ethyl-2-(((1r,4r)-4-(pyrrolidin-1-yl)cyclohexyl)amino)quinazolin-6-yl)-2-fluorophenyl) benzenesulfon-amide]	≤ 5	≤ 5	
N[C@H]1CC[C@H](Nc2ncc3cc(-c4nnc(NS(=O)(=O)c5ccccc5Cl)s4)ccc3n2)CC1 [Compound 89, N-(5-(2-(((1r,4r)-4-aminocyclohexyl)amino)quinazolin-6-yl)-1,3,4-thiadiazol-2-yl)-2-chlorobenzene-sulfonamide]	≤ 5	100 to 10000	
Cc1cc2nc(N[C@H]3CC[C@H](N)CC3)ncc2cc1-c1ccc(NS(=O)(=O)c2ccccc2Cl)c(F)c1 [Compound 90, N-(4-(2-(((1r,4r)-4-aminocyclohexyl)amino)-7-methylquinazolin-6-yl)-2-fluorophenyl)-2-chlorobenzene-sulfonamide]	≤ 5	5 to 50	
CCc1cc(-c2cnc(NS(=O)(=O)c3ccccc3Cl)cc2OC)cc2cnc(N[C@H]3CC[C@H](N)CC3)nc12 [Compound 92, N-(5-(2-(((1r,4r)-4-aminocyclohexyl)amino)-8-ethylquinazolin-6-yl)-4-methoxypyridin-2-yl)-2-chlorobenzene-sulfonamide]	≤ 5	100 to 10000	
CCc1cc(-c2cnc(NS(=O)(=O)c3ccccc3Cl)c(F)c2)cc2cnc(N[C@H]3CC[C@H](N(C)C)CC3)nc12 [Compound 95, 2-chloro-N-(5-(2-(((1r,4r)-4-(dimethylamino)cyclohexyl)amino)-8-ethylquinazolin-6-yl)-3-fluoropyridin-2-yl)benzenesulfonamide]	≤ 5	≤ 5	
CCc1cc(-c2cc(F)c(NS(=O)(=O)c3ccccc3Cl)nc2C)cc2cnc(N[C@H]3CC[C@H](N(C)C)CC3)nc12 [Compound 97, 2-chloro-N-(5-(2-(((1r,4r)-4-(dimethylamino)cyclohexyl)amino)-8-ethylquinazolin-6-yl)-3-fluoro-6-methylpyridin-2-yl)benzenesulfonamide]	≤ 5	≤ 5	
CCc1cc(-c2ncc(NS(=O)(=O)c3ccccc3Cl)nc2OC)cc2cnc(N[C@H]3CC[C@H](N)CC3)nc12 [Compound 98, N-(5-(2-(((1r,4r)-4-aminocyclohexyl)amino)-8-ethylquinazolin-6-yl)-6-methoxypyrazin-2-yl)-2-chlorobenzenesulfonamide]	≤ 5	≤ 5	
CCc1cc(-c2ccc(NS(=O)(=O)c3ccccc3Cl)nc2OC)cc2cnc(N[C@H]3CC[C@H](N(C)C)CC3)nc12 [Compound 99, 2-chloro-N-(5-(2-(((1r,4r)-4-(dimethylamino)cyclohexyl)amino)-8-ethylquinazolin-6-yl)-6-methoxypyridin-2-yl)benzenesulfonamide]	≤ 5	≤ 5	
COc1nc(NS(=O)(=O)c2ccccc2Cl)ccc1-c1cc2cnc(N[C@H]3CC[C@H](N(C)C)CC3)nc2cc1C [Compound 108, 2-chloro-N-(5-(2-(((1r,4r)-4-(dimethylamino)cyclohexyl)amino)-7-methylquinazolin-6-yl)-6-methoxypyridin-2-yl)benzenesulfonamide]	≤ 5	≤ 5	
CCc1cc(-c2ccc(NS(=O)(=O)c3ccccc3Cl)nc2OC)cc2cnc(N[C@H]3CC[C@H](NC)CC3)nc12 [Compound 116, 2-chloro-N-(5-(8-ethyl-2-(((1r,4r)-4-(methylamino)cyclohexyl)amino)quinazolin-6-yl)-6-methoxypyridin-2-yl)benzenesulfonamide]	≤ 5	≤ 5	
CCc1nc(NS(=O)(=O)c2ccccc2Cl)ccc1-c1cc(CC)c2nc(N[C@H]3CC[C@H](N(C)C)CC3)ncc2c1 [Compound 117, 2-chloro-N-(5-(2-(((1r,4r)-4-(dimethylamino)cyclohexyl)amino)-8-ethylquinazolin-6-yl)-6-ethylpyridin-2-yl)benzenesulfonamide]	≤ 5	≤ 5	
CCc1cc(-c2ccc(NS(=O)(=O)c3ccccc3C)nc2OC)cc2cnc(N[C@H]3CC[C@H](NC)CC3)nc12 [Compound 118, N-(5-(8-ethyl-2-(((1r,4r)-4-(methylamino)cyclohexyl)amino)quinazolin-6-yl)-6-methoxypyridin-2-yl)-2-methylbenzenesulfonamide]	≤ 5	≤ 5	
CCc1cc(-c2ccc(NS(=O)(=O)c3ccccc3C)nc2OC)cc2cnc(N[C@H]3CC[C@H](N(C)C)CC3)nc12 [Compound 119, N-(5-(2-(((1r,4r)-4-(dimethylamino)cyclohexyl)amino)-8-ethylquinazolin-6-yl)-6-methoxypyridin-2-yl)-2-methylbenzenesulfonamide]	≤ 5	≤ 5	
CCc1cc(-c2ccc(NS(=O)(=O)c3ccccc3Cl)nc2C)cc2cnc(N[C@H]3CC[C@H](NC)CC3)nc12 [Compound 122, 2-chloro-N-(5-(8-ethyl-2-(((1r,4r)-4-(methylamino)cyclohexyl)amino)quinazolin-6-yl)-6-methylpyridin-2-yl)benzenesulfonamide]	≤ 5	≤ 5	
COc1nc(NS(=O)(=O)c2ccccc2Cl)ccc1-c1cc(C(C)(F)F)c2nc(N[C@H]3CC[C@H](N(C)C)CC3)ncc2c1 [Compound 124, 2-chloro-N-(5-(8-(1,1-difluoroethyl)-2-(((1r,4r)-4-(dimethylamino)cyclohexyl)amino)quinazolin-6-yl)-6-methoxypyridin-2-yl)benzenesulfonamide]	≤ 5	≤ 5	

Further lines, results first:

IC50 (IRE1a [1]) [nM]	EC50 (IRE1a [2]; Homo sapiens, HEK-293T) [nM]	EC50 (IRE1a [2]) [nM]	Compound
≤ 5	5 to 50		CCc1cc(-c2ccc(NS(=O)(=O)c3ccccc3Cl)c(F)c2)cc2cnc(N[C@@H]3CC[C@H](N)C3)nc12 [Compound 79, N-(4-(2-(((1R,3S)-3-aminocyclopentyl)amino)-8-ethylquinazolin-6-yl)-2-fluorophenyl)-2-chlorobenzene-sulfonamide]
≤ 5	≤ 5		NC12CCC(Nc3ncc4cc(-c5ccc(NS(=O)(=O)c6ccccc6Cl)c(F)c5)ccc4n3)(CC1)CC2 [Compound 81, N-(4-(2-((4-aminobicyclo[2.2.2]octan-1-yl)amino)quinazolin-6-yl)-2 fluorophenyl)-2-chlorobenzene-sulfonamide]
≤ 5		5 to 50	CCc1cc(-c2ccc(NS(=O)(=O)c3ccccc3Cl)c(F)c2)cc2cnc(N[C@H]3CC4C[C@H](N)CC4C3)nc12 (stereo partly shown) [Compound 82, N-(4-(2-((4-5-aminooctahydro-pentalen-2-yl)amino)-8-ethylquinazolin-6-yl)-2-fluorophenyl)-2-chlorobenzene-sulfonamide]
≤ 5	5 to 50		CCc1cc(-c2ccc(NS(=O)(=O)c3ccccc3Cl)c(F)c2)cc2cnc(N[C@H]3CC4C[C@@H](N)CC4C3)nc12 (stereo partly shown) [Compound 84]
≤ 5	100 to 10000		N[C@H]1CC2C[C@@H](Nc3ncc4cc(-c5ccc(NS(=O)(=O)c6ccccc6Cl)c(F)c5)ccc4n3)CC2C1 (stereo partly shown) [Compound 85, N-(4-(2-(((2s,5s)-5-aminooctahydro-pentalen-2-yl)amino)quinazolin-6-yl)-2-fluorophenyl)-2-chlorobenzene-sulfonamide]
≤ 5	50 to 100		NC12CCC(Nc3ncc4cc(-c5ccc(NS(=O)(=O)c6ccccc6Cl)c(F)c5)ccc4n3)(CC1)C2 [Compound 86]
≤ 5	≤ 5		CCc1cc(-c2ccc(NS(=O)(=O)c3ccccc3Cl)c(F)c2)cc2cnc(NC34CCC(N)(CC3)CC4)nc12 [Compound 87, N-(4-(2-((4-aminobicyclo[2.2.2]octan-1-yl)amino)-8-ethylquinazolin-6-yl)-2-fluorophenyl)-2-chlorobenzene-sulfonamide]
